Experimental findings from patent US9290453B2 (Merck Sharp & Dohme Corp., priority 2010, dated 2016) are described below.

Usually Ki stands for the equilibrium dissociation constant of an inhibitor or competing ligand from its target. Higher therefore signals lower affinity.

Where a name gives a salt, the structure may show the parent alone.

The target of the first experiment is T1, hCRTH2 (Homo sapiens, UniProt Q9Y5Y4).
T1 construct: expressed in transfected cells; host or cells: HEK (human embryonic kidney) cells expressing hCRTH2
T1 sequence (Q9Y5Y4 1-395): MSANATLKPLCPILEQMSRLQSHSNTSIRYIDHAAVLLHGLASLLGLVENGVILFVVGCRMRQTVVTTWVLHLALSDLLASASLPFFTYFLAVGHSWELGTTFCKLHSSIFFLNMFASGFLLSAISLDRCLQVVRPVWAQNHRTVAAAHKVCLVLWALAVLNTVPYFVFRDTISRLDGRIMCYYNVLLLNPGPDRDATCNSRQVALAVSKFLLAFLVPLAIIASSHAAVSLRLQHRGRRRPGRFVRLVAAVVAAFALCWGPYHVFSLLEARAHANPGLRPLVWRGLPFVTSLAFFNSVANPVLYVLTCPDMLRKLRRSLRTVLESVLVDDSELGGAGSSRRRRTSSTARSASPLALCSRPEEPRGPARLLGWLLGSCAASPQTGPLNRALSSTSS
The experiment in a line: Radioligand Binding Assay A ([3H]PGD2 filtration binding, HEK-hCRTH2 membranes). As to conditions: Table A, rated A-D. The method, then:
Radioligand binding assays were performed at room temperature in 50 mM Tris-HCl pH 7.4, 1 mM EDTA containing 2 mM MnCl2 and 3.0 nM [^3H]PGD2 (New England Nuclear, Boston, Mass.) (171 Ci mmol^−1), in a final volume of 0.2 ml. Competing ligands were diluted in dimethylsulfoxide (Me2SO) that was kept constant at 1% (v/v) of the final incubation volume. The reaction was initiated by the addition of 8-20 μg of membrane protein prepared from a human embryonic kidney (HEK)-hCRTH2 cell line. Total and non-specific binding were determined in the absence and the presence of 10 μM PGD2, respectively. Under these conditions, specific binding (total minus non-specific) of the radioligand to the receptor reached equilibrium within 50 min and was stable up to 180 min. The reaction was routinely conducted for 60 min at room temperature and terminated by rapid filtration through prewetted (0.3% polyethyleneimine) 96-well printed Filtermate™ (Wallac) using a Tomtec® harvester (Hamden, Conn.). After washing with cold buffer, the filter was dried for 2 minutes in microwave, and Meltilex Scintillator sheet (Wallac) was melted on for 2 min. The radioactivity was measured with Betaplate model 1205 (Wallac).
With `O=C(O)CCCCc1cc2cc(C(=O)NCc3ccc(OC(F)(F)F)cc3)ccc2nc1-c1ccccc1` [Compound 1, 5-(2-phenyl-6-(4-(trifluoromethoxy)benzylcarbamoyl)quinolin-3-yl)pentanoic acid trifluoroacetate], the Ki lay within 2.1 to 20 nM.

The molecule `O=C(O)CCCCc1cc2cc(C(=O)NCCCN3CCCC3=O)ccc2nc1-c1ccccc1` [Compound 1AA, 6-[[[3-(2-oxo-1-pyrrolidinyl)propyl]amino]carbonyl]-2-phenyl-3-quinolinepentanoic acid] had a Ki of 2.1 to 20 nM.

Molecule `O=C(O)CCCCc1cc2cc(C(=O)Nc3cc4ccccc4[nH]3)ccc2nc1-c1ccccc1` [Compound 1AB, 6-[(1H-indol-2-ylamino)carbonyl]-2-phenyl-3-quinolinepentanoic acid] returned a Ki of 2.1 to 20 nM.

With `CCCCCCCCCNC(=O)c1ccc2nc(-c3ccccc3)c(CCCCC(=O)O)cc2c1` [Compound 1AC, 6-[(nonylamino)carbonyl]-2-phenyl-3-quinolinepentanoic acid], the Ki lay within 2.1 to 20 nM.

In turn, `C[C@@H](NC(=O)c1ccc2nc(-c3ccccc3)c(CCCCC(=O)O)cc2c1)c1ccc(Cl)cc1` [Compound 1AD, 6-[[[1(R)-(4-chlorophenyl)ethyl]amino]carbonyl]-2-phenyl-3-quinolinepentanoic acid] returned a Ki of 2.1 to 20 nM.

Molecule `C[C@H](NC(=O)c1ccc2nc(-c3ccccc3)c(CCCCC(=O)O)cc2c1)c1ccc(Cl)cc1` [Compound 1AE, 6-[[[1(S)-(4-chlorophenyl)ethyl]amino]carbonyl]-2-phenyl-3-quinolinepentanoic acid] showed a Ki of 2.1 to 20 nM.

`O=C(O)CCCCc1cc2cc(C(=O)N[C@H](c3ccc(Cl)cc3)C(F)(F)F)ccc2nc1-c1ccccc1` [Compound 1AF, 6-[[[1(R)-(4-chlorophenyl)-2,2,2-trifluoroethyl]amino]carbonyl]-2-phenyl-3-quinolinepentanoic acid] gave a Ki of 2.1 to 20 nM.

The molecule `O=C(O)CCCCc1cc2cc(C(=O)NCc3cccc(Cl)c3)ccc2nc1-c1ccccc1` [Compound 1D, 6-[[[(3-chlorophenyl)methyl]amino]carbonyl]-2-phenyl-3-quinolinepentanoic acid] gave a Ki of 2.1 to 20 nM.

The molecule `Cc1ccc(CNC(=O)c2ccc3nc(-c4ccccc4)c(CCCCC(=O)O)cc3c2)cc1` [Compound 1E, 6-[[[(4-methylphenyl)methyl]amino]carbonyl]-2-phenyl-3-quinolinepentanoic acid] registered a Ki of 2.1 to 20 nM.

`O=C(O)CCCCc1cc2cc(C(=O)NCc3ccc(C(F)(F)F)cc3)ccc2nc1-c1ccccc1` [Compound 1F, 2-phenyl-6-[[[[4-(trifluoromethyl)phenyl]methyl]amino]carbonyl]-3-quinolinepentanoic acid]: the Ki was in the range of 2.1 to 20 nM.

For `O=C(O)CCCCc1cc2cc(C(=O)N[C@@H](c3ccccc3)C(F)(F)F)ccc2nc1-c1ccccc1` [Compound 1G, 2-phenyl-6-[[(2,2,2-trifluoro-1(S)-phenylethyl)amino]carbonyl]-3-quinolinepentanoic acid], the Ki was in the range of 2.1 to 20 nM.

The molecule `O=C(O)CCCCc1cc2cc(C(=O)N[C@H](c3ccccc3)C(F)(F)F)ccc2nc1-c1ccccc1` [Compound 1H, 2-phenyl-6-[[(2,2,2-trifluoro-1(R)-phenylethyl)amino]carbonyl]-3-quinolinepentanoic acid] showed a Ki of 2.1 to 20 nM.

Molecule `O=C(O)CCCCc1cc2cc(C(=O)N3CC[C@H](c4ccccc4)C3)ccc2nc1-c1ccccc1` [Compound 1J, 2-phenyl-6-[(3(R)-phenyl-1-pyrrolidinyl)carbonyl]-3-quinolinepentanoic acid] returned a Ki of 2.1 to 20 nM.

Consider `O=C(O)CCCCc1cc2cc(C(=O)N3CCC[C@@H](c4ccccc4)C3)ccc2nc1-c1ccccc1` [Compound 1K, 2-phenyl-6-[(3(S)-phenyl-1-piperidinyl)carbonyl]-3-quinolinepentanoic acid], for which the Ki lay in the range of 2.1 to 20 nM.

`O=C(O)CCCCc1cc2cc(C(=O)N3CCC[C@H](c4ccccc4)C3)ccc2nc1-c1ccccc1` [Compound 1L, 2-phenyl-6-[(3(R)-phenyl-1-piperidinyl)carbonyl]-3-quinolinepentanoic acid]: the Ki is 2.1 to 20 nM.

For the molecule `O=C(O)CCCCc1cc2cc(C(=O)N[C@@H]3CCc4ccccc43)ccc2nc1-c1ccccc1` [Compound 1M, 6-[[(2,3-dihydro-1H-inden-1(R)-yl)amino]carbonyl]-2-phenyl-3-quinolinepentanoic acid], the Ki is 2.1 to 20 nM.

`O=C(O)CCCCc1cc2cc(C(=O)N[C@H]3CCc4ccccc43)ccc2nc1-c1ccccc1` [Compound 1N, 6-[[(2,3-dihydro-1H-inden-1(S)-yl)amino]carbonyl]-2-phenyl-3-quinolinepentanoic acid] came in with a Ki of 2.1 to 20 nM.

Consider `O=C(O)CCCCc1cc2cc(C(=O)N[C@H]3CCCc4ccccc43)ccc2nc1-c1ccccc1` [Compound 1P, 2-phenyl-6-[[(1,2,3,4-tetrahydro-1(S)-naphthalenyl)amino]carbonyl]-3-quinolinepentanoic acid], for which the Ki lay in the range of 2.1 to 20 nM.

The molecule `O=C(O)CCCCc1cc2cc(C(=O)NC3Cc4ccccc4C3)ccc2nc1-c1ccccc1` [Compound 1Q, 6-[[(2,3-dihydro-1H-inden-2-yl)amino]carbonyl]-2-phenyl-3-quinolinepentanoic acid] returned a Ki of 2.1 to 20 nM.

For `O=C(O)CCCCc1cc2cc(C(=O)N3CCC(c4ccccc4)CC3)ccc2nc1-c1ccccc1` [Compound 1R, 2-phenyl-6-[(4-phenyl-1-piperidinyl)carbonyl]-3-quinolinepentanoic acid], the Ki fell in the range of 0.1 to 2 nM.

`C[C@@H](NC(=O)c1ccc2nc(-c3ccccc3)c(CCCCC(=O)O)cc2c1)c1ccccc1` [Compound 1S, 2-phenyl-6-[[(l(R)-phenylethyl)amino]carbonyl]-3-quinolinepentanoic acid] came in with a Ki of 2.1 to 20 nM.

In turn, `C[C@H](NC(=O)c1ccc2nc(-c3ccccc3)c(CCCCC(=O)O)cc2c1)c1ccccc1` [Compound 1T, 2-phenyl-6-[[(l(S)-phenylethyl)amino]carbonyl]-3-quinolinepentanoic acid] came in with a Ki of 2.1 to 20 nM.

`CN(Cc1ccccc1)C(=O)c1ccc2nc(-c3ccccc3)c(CCCCC(=O)O)cc2c1` [Compound 1U, 6-[[methyl(phenylmethyl)amino]carbonyl]-2-phenyl-3-quinolinepentanoic acid] came in with a Ki of 2.1 to 20 nM.

Molecule `O=C(O)CCCCc1cc2cc(C(=O)NCc3ccc(C(F)(F)F)nc3)ccc2nc1-c1ccccc1` [Compound 1V, 2-phenyl-6-[[[[6-(trifluoromethyl)-3-pyridinyl]methyl]amino]carbonyl]-3-quinolinepentanoic acid] returned a Ki of 2.1 to 20 nM.

On to `CC(NC(=O)c1ccc2nc(-c3ccccc3)c(CCCCC(=O)O)cc2c1)c1ccncc1` (centres unmarked) [Compound 1W, 2-phenyl-6-[[[1-(4-pyridinyl)ethyl]amino]carbonyl]-3-quinolinepentanoic acid], for which the Ki was 20.1 to 200 nM.

As for `O=C(O)CCCCc1cc2cc(C(=O)NCc3cccnc3)ccc2nc1-c1ccccc1` [Compound 1X, 2-phenyl-6-[[(3-pyridinylmethyl)amino]carbonyl]-3-quinolinepentanoic acid], the Ki fell in the range of 20.1 to 200 nM.

Consider `O=C(O)CCCCc1cc2cc(C(=O)NCc3ccncc3)ccc2nc1-c1ccccc1` [Compound 1Y, 2-phenyl-6-[[(4-pyridinylmethyl)amino]carbonyl]-3-quinolinepentanoic acid], for which the Ki was in the range of 20.1 to 200 nM.

The molecule `O=C(O)CCCCc1cc2cc(C(=O)NCCCN3CCCC3)ccc2nc1-c1ccccc1` [Compound 1Z, 2-phenyl-6-[[[3-(1-pyrrolidinyl)propyl]amino]carbonyl]-3-quinolinepentanoic acid] displayed a Ki of 201 to 700 nM.

`O=C(O)CCCCc1cc2cc(C(=O)N3CC[C@@H](c4ccccc4)C3)ccc2nc1-c1ccccc1` [Compound 1i, 2-phenyl-6-[(3(S)-phenyl-1-pyrrolidinyl)carbonyl]-3-quinolinepentanoic acid] came in with a Ki of 2.1 to 20 nM.

Molecule `O=C(O)CCCCc1cc2cc(C(=O)N[C@@H]3CCCc4ccccc43)ccc2nc1-c1ccccc1` [Compound 1o, 2-phenyl-6-[[(1,2,3,4-tetrahydro-1(R)-naphthalenyl)amino]carbonyl]-3-quinolinepentanoic acid] returned a Ki of 2.1 to 20 nM.

With `Cc1cccc(CNC(=O)c2ccc3nc(-c4ccccc4)c(CCCCC(=O)O)cc3c2)c1` [Compound 2A, 6-[[[(3-methylphenyl)methyl]amino]carbonyl]-2-phenyl-3-quinolinepentanoic acid], the Ki is 2.1 to 20 nM.

Consider `O=C(O)CCCCc1cc2cc(C(=O)NCc3ccc(Cl)cc3)ccc2nc1-c1ccccc1` [Compound 2B, 6-[[[(4-chlorophenyl)methyl]amino]carbonyl]-2-phenyl-3-quinolinepentanoic acid], for which the Ki was 2.1 to 20 nM.

The experiment is the same for the next values; noted with them: values in text.
In the case of `C[C@@H](NC(=O)c1ccc2nc(-c3ccccc3)c(CCCCC(=O)O)cc2c1)c1ccc(Cl)cc1` [Compound 1AD, 6-[[[1(R)-(4-chlorophenyl)ethyl]amino]carbonyl]-2-phenyl-3-quinolinepentanoic acid], the affinity corresponds to a Ki of 3.5 nM.

As to `Cc1ccc(CNC(=O)c2ccc3nc(-c4ccccc4)c(CCCCC(=O)O)cc3c2)cc1` [Compound 1E, 6-[[[(4-methylphenyl)methyl]amino]carbonyl]-2-phenyl-3-quinolinepentanoic acid], affinity was put at a Ki of 4.4 nM.

Molecule `O=C(O)CCCCc1cc2cc(C(=O)N[C@@H]3CCc4ccccc43)ccc2nc1-c1ccccc1` [Compound 1M, 6-[[(2,3-dihydro-1H-inden-1(R)-yl)amino]carbonyl]-2-phenyl-3-quinolinepentanoic acid] came in with a Ki of 3.8 nM.

In the case of `O=C(O)CCCCc1cc2cc(C(=O)N3CCC(c4ccccc4)CC3)ccc2nc1-c1ccccc1` [Compound 1R, 2-phenyl-6-[(4-phenyl-1-piperidinyl)carbonyl]-3-quinolinepentanoic acid], the inhibition constant (Ki) was found to be 1.8 nM.

`O=C(O)CCCCc1cc2cc(C(=O)NCc3cccnc3)ccc2nc1-c1ccccc1` [Compound 1X, 2-phenyl-6-[[(3-pyridinylmethyl)amino]carbonyl]-3-quinolinepentanoic acid] had a Ki of 28.9 nM.

For the molecule `O=C(O)CCCCc1cc2cc(C(=O)NCCCN3CCCC3)ccc2nc1-c1ccccc1` [Compound 1Z, 2-phenyl-6-[[[3-(1-pyrrolidinyl)propyl]amino]carbonyl]-3-quinolinepentanoic acid], affinity was put at a Ki of 570 nM.
